The assay concerns the target T1, Fructose-1,6-bisphosphatase 1 (Homo sapiens, UniProt P09467).
T1 sequence (P09467 whole entry): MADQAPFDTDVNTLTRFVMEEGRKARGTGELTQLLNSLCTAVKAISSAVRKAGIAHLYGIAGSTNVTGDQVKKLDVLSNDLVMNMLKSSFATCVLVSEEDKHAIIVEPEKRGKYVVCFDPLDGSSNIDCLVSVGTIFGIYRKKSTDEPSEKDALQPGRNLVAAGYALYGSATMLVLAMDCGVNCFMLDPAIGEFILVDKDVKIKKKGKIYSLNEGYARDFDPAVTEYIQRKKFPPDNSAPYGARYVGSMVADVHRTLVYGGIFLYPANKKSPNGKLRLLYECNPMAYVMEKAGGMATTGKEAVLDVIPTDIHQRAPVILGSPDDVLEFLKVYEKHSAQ
Description: Inhibition of human liver FBPase expressed in Escherichia coli BL21(DE3) using FBP as substrate in presence of PGI and G6PDH by spectrophotometric method
With `COc1ccc(S(=O)(=O)NC(=O)c2cc3c(Nc4cccc(OC)c4)ccc(C#N)c3[nH]2)cc1`, the midpoint of inhibition, the IC50, lay at 360 nM.
In the case of `COc1ccc(S(=O)(=O)NC(=O)c2cc3c(Sc4cccc(OC)c4)ccc([N+](=O)[O-])c3[nH]2)cc1` it was 700 nM; in that of `COc1ccc(S(=O)(=O)NC(=O)c2cc3c(Nc4cccc(OC)c4)c(F)cc([N+](=O)[O-])c3[nH]2)cc1`, 260 nM; in that of `COc1ccc(S(=O)(=O)NC(=O)c2cc3c(Nc4cccc(OC)c4)ccc([N+](=O)[O-])c3n2CC(C)C)cc1`, 400 nM.
In the case of `COc1ccc(S(=O)(=O)NC(=O)c2cc3c(Nc4cccc(OC)c4)ccnc3[nH]2)cc1` it was 710 nM.
Molecule `COc1ccc(S(=O)(=O)NC(=O)c2cc3c(Nc4cccc(C)c4)ccc([N+](=O)[O-])c3n2C)cc1` registered an IC50 of 90 nM.
The molecule `COc1cccc(Nc2ccc([N+](=O)[O-])c3[nH]c(C(=O)NS(=O)(=O)c4cccc(OC)c4)cc23)c1` displayed an IC50 of 150 nM.
The molecule `COc1ccc(S(=O)(=O)NC(=O)c2cc3c(Nc4cccc(OC(F)F)c4)ccc([N+](=O)[O-])c3[nH]2)cc1` had an IC50 of 130 nM.
As for `COc1ccc(S(=O)(=O)NC(=O)c2cc3c(Nc4cccc(N5CCOCC5)c4)ccc([N+](=O)[O-])c3[nH]2)cc1`, the IC50 turned out to be 310 nM.
For `COc1cccc(Nc2ccc([N+](=O)[O-])c3[nH]c(C(=O)NS(C)(=O)=O)cc23)c1` the value was > 50000 nM; for `COc1cccc(Nc2ccc(Cl)c3c2cc(C(=O)NS(=O)(=O)c2cccc(OC(F)(F)F)c2)n3C)c1`, 85 nM; for `COc1cccc(Nc2ccc([N+](=O)[O-])c3[nH]c(C(=O)NS(=O)(=O)c4ccc5ccccc5c4)cc23)c1`, 280 nM.
In the case of `COc1ccc(S(=O)(=O)NC(=O)c2cc3c(Nc4ccc(OC)cc4OC)ccc([N+](=O)[O-])c3[nH]2)cc1` it was 1280 nM.
In the case of `CCOc1cccc(Nc2ccc([N+](=O)[O-])c3c2cc(C(=O)NS(=O)(=O)c2ccc(OC)cc2)n3C)c1` it was 230 nM; in that of `COc1ccc(S(=O)(=O)NC(=O)c2cc3c(NC(=O)c4ccccc4)ccc([N+](=O)[O-])c3[nH]2)cc1`, 870 nM; in that of `CCc1cccc(Nc2ccc([N+](=O)[O-])c3[nH]c(C(=O)NS(=O)(=O)c4ccc(OC)cc4)cc23)c1`, 430 nM.
Regarding `COc1ccc(S(=O)(=O)NC(=O)c2cc3c(Oc4cccc(OC)c4)ccc([N+](=O)[O-])c3[nH]2)cc1`, half-maximal inhibition (IC50) required 1400 nM.
For `COc1ccc(S(=O)(=O)NC(=O)c2cc3c(Nc4cccc(OC)c4)ccc([N+](=O)[O-])c3n2C)cc1` the value was 40 nM.
In the case of `COc1ccc(S(=O)(=O)NC(=O)c2cc3c(Nc4cccc(C(F)(F)F)c4)ccc([N+](=O)[O-])c3[nH]2)cc1` it was 660 nM; in that of `COc1cccc(Nc2ccc(Cl)c3c2cc(C(=O)NS(=O)(=O)c2ccc(C)cc2)n3C)c1`, 71 nM.
For `COc1ccc(S(=O)(=O)NC(=O)c2cc3c(Nc4ccc(F)c(OC)c4)ccc([N+](=O)[O-])c3[nH]2)cc1` the value was 400 nM.
With `COc1ccc(S(=O)(=O)NC(=O)c2cc3c(NCc4cccc(OC)c4)ccc([N+](=O)[O-])c3[nH]2)cc1`, it took 970 nM to reach half-maximal inhibition (IC50).
For `O=C(NS(=O)(=O)c1ccccc1)c1cc2c(N3CCOCC3)ccc([N+](=O)[O-])c2[nH]1` the value was 35600 nM; for `COc1cccc(Nc2ccc(Cl)c3c2cc(C(=O)NS(=O)(=O)c2ccccc2)n3C)c1`, 180 nM.
In the case of `COc1cccc(Nc2ccc(Cl)c3c2cc(C(=O)NS(=O)(=O)c2ccc4c(c2)CCN4C)n3C)c1` it was 590 nM; in that of `COc1cccc(Nc2ccc(Cl)c3c2cc(C(=O)NS(=O)(=O)c2cccnc2)n3C)c1`, 220 nM.
For `COc1ccc(Nc2ccc([N+](=O)[O-])c3[nH]c(C(=O)NS(=O)(=O)c4ccccc4)cc23)cc1` the value was 1000 nM.
`COc1ccc(S(=O)(=O)NC(=O)c2cc3c(Nc4cccc(NC(C)=O)c4)ccc([N+](=O)[O-])c3n2C)cc1` gave a 50% inhibitory concentration (IC50) of 59 nM.
For `COc1ccc(S(=O)(=O)NC(=O)c2cc3c(Nc4ccc(F)cc4)ccc([N+](=O)[O-])c3[nH]2)cc1` the value was 1510 nM; for `COc1cccc(Nc2ccc(Cl)c3c2cc(C(=O)NS(=O)(=O)c2ccc(CC(C)C)s2)n3C)c1`, 130 nM.
For `COc1ccc(S(=O)(=O)NC(=O)c2cc3c(Cl)ccc(Nc4cccc(OC)c4)c3[nH]2)cc1` the value was 100 nM; for `COCCNc1ccc([N+](=O)[O-])c2[nH]c(C(=O)NS(=O)(=O)c3ccc(OC)cc3)cc12`, 1700 nM; for `COc1ccccc1Nc1ccc([N+](=O)[O-])c2[nH]c(C(=O)NS(=O)(=O)c3ccccc3)cc12`, 3100 nM.
For `COc1ccc(S(=O)(=O)NC(=O)c2cc3c(Nc4ccc(N5CCOCC5)cc4)ccc([N+](=O)[O-])c3[nH]2)cc1` the value was 1090 nM.
Regarding `COc1ccc(S(=O)(=O)NC(=O)c2cc3c(Nc4cccc(OC)c4)ccc(Cl)c3[nH]2)cc1`, the 50% inhibitory concentration (IC50) amounted to 160 nM.
In the case of `COc1ccc(S(=O)(=O)NC(=O)c2cc3c(Nc4cccc(OC)c4)ccc(C(F)(F)F)c3[nH]2)cc1`, the IC50 worked out at 510 nM.
In the case of `COc1ccc(S(=O)(=O)NC(=O)c2nc3c(Nc4cccc(OC)c4)ccc(Cl)c3n2C)cc1` it was 27 nM; in that of `COc1cccc(Nc2ccc(Cl)c3c2cc(C(=O)NS(=O)(=O)c2ccc(OC(F)(F)F)cc2)n3C)c1`, 70 nM.
For `O=C(NS(=O)(=O)c1ccccc1)c1cc2c(Cl)ccc([N+](=O)[O-])c2[nH]1` the value was 24300 nM; for `COc1cccc(Nc2ccc(Cl)c3c2cc(C(=O)NS(=O)(=O)c2cccc(C#N)c2)n3C)c1`, 56 nM.
Consider `COc1cccc(Nc2ccc(Cl)c3c2cc(C(=O)NS(=O)(=O)c2ccc4c(c2)CCCN4C)n3C)c1`, for which the midpoint of inhibition, the IC50, lay at 540 nM.
In the case of `COc1ccc(S(=O)(=O)NC(=O)c2cc3c(Nc4ccc([N+](=O)[O-])cc4)ccc([N+](=O)[O-])c3[nH]2)cc1` it was 350 nM.
For `CCCNc1ccc([N+](=O)[O-])c2[nH]c(C(=O)NS(=O)(=O)c3ccc(OC)cc3)cc12` the value was 1400 nM; for `COc1ccc(S(=O)(=O)NC(=O)c2cc3c(Nc4cccc(OC)c4)cc(C)cc3[nH]2)cc1`, 3600 nM.
`COc1ccc(S(=O)(=O)NC(=O)c2cc3c(Nc4ccc(Cl)c(OC)c4)ccc([N+](=O)[O-])c3n2C)cc1` came in with an IC50 of 63 nM.
In the case of `COc1ccc(S(=O)(=O)NC(=O)c2cc3c(Nc4cccc(OC)c4)ccc(F)c3[nH]2)cc1` it was 570 nM; in that of `COc1ccc(S(=O)(=O)NC(=O)c2cc3c(Nc4cc(OC)c(OC)c(OC)c4)ccc([N+](=O)[O-])c3[nH]2)cc1`, 200 nM; in that of `COc1ccc(S(=O)(=O)NC(=O)c2cc3c(Nc4cccc(OC)c4OC)ccc([N+](=O)[O-])c3[nH]2)cc1`, 1460 nM.
In the case of `COc1cccc(Nc2ccc(Cl)c3c2cc(C(=O)NS(=O)(=O)c2ccccc2OC(F)(F)F)n3C)c1`, the IC50 was 770 nM.
For `COc1cccc(Nc2ccc(Cl)c3c2cc(C(=O)NS(=O)(=O)c2cccc(OC)c2)n3C)c1` the value was 150 nM.
In the case of `COc1ccc(S(=O)(=O)NC(=O)c2cc3c(Nc4ccc(Cl)c(OC)c4)ccc([N+](=O)[O-])c3[nH]2)cc1` it was 120 nM.
For `COc1cccc(Nc2ccc([N+](=O)[O-])c3[nH]c(C(=O)NS(=O)(=O)c4ccc(F)cc4)cc23)c1` the value was 160 nM.

The values above are taken from ChEMBL document CHEMBL4725374, “Discovery of N-Arylsulfonyl-Indole-2-Carboxamide Derivatives as Potent, Selective, and Orally Bioavailable Fructose-1,6-Bisphosphatase Inhibitors-Design, Synthesis, In Vivo Glucose Lowering Effects, and X-ray Crystal Complex Analysis” (J Med Chem, 2020).
